According to patent US20050142581A1, “Microrna as ligands and target molecules” (priority 2003, published 2005):
Oligonucleotides are written 5' to 3', each unit as a sugar letter and its base; * is a phosphorothioate linkage, no mark a phosphodiester; rarer units and linkages stand in square brackets, end groups in braces. Plain capitals give the bases only. d = 2'-deoxy (DNA)

Each substance was assayed on human CD40 mRNA (assay: Inhibition of CD40 mRNA levels by oligonucleotides (real-time RT-PCR)). Settings: oligodeoxynucleotides with phosphorothioate backbones throughout; averages from three experiments.
Format: cell-based
Set-up: concentration or dose not given beside the values
Protocol: When cells reach about 80% confluency, they are treated with oligonucleotide. For cells grown in 96-well plates, wells are washed once with 200 μl Opti-MEM-1 reduced-serum medium (Life Technologies) and then treated with 130 μl of Opti-MEM-1 containing 3.75 μg/ml LIPOFECTIN (Life Technologies) and the desired oligonucleotide at a final concentration of 150 nM. After 4 hours of treatment, the medium was replaced with fresh medium. Cells were harvested 16 hours after oligonucleotide treatment.
Poly(A)+ mRNA was isolated according to Miura et al. (Clin. Chem., 1996, 42, 1758). Briefly, for cells grown on 96-well plates, growth medium was removed from the cells and each well was washed with 200 ul cold PBS. 60 ul lysis buffer (10 mM Tris-HCl, pH 7.6, 1 mM EDTA, 0.5 M NaCl, 0.5% NP-40, 20 mM vanadyl-ribonucleoside complex) was added to each well, the plate was gently agitated and then incubated at room temperature for five minutes. 55 ul of lysate was transferred to Oligo d(T) coated 96 well plates (AGCT Inc., Irvine, Calif.). Plates were incubated for 60 minutes at room temperature, washed 3 times with 200 ul of wash buffer (10 mM Tris-HCl pH 7.6, 1 mM EDTA, 0.3 M NaCl). After the final wash, the plate was blotted on paper towels to remove excess wash buffer and then air-dried for 5 minutes. 60 ul of elution buffer (5 mM Tris-HCl pH 7.6), preheated to 70° C. was added to each well, the plate was incubated on a 90° hot plate for 5 minutes, and the eluate then transferred to a fresh 96 well plate. Cells grown on 100 mm or other standard plates may be treated similarly, using appropriate volumes of all solutions.
Quantitation of CD40 mRNA levels was determined by real-time PCR (RT-PCR) using the ABI PRISM 7700 Sequence Detection System (PE-Applied Biosystems, Foster City, Calif.) according to manufacturer's instructions. This is a closed-tube, non-gel-based, fluorescence detection system which allows high-throughput quantitation of polymerase chain reaction (PCR) products in real-time.
As opposed to standard PCR, in which amplification products are quantitated after the PCR is completed, products in RT-PCR are quantitated as they accumulate. This is accomplished by including in the PCR reaction an oligonucleotide probe that anneals specifically between the forward and reverse PCR primers, and contains two fluorescent dyes. A reporter dye (e.g., JOE or FAM, PE-Applied Biosystems, Foster City, Calif.) is attached to the 5′ end of the probe and a quencher dye (e.g., TAMRA, PE-Applied Biosystems, Foster City, Calif.) is attached to the 3′ end of the probe. When the probe and dyes are intact, reporter dye emission is quenched by the proximity of the 3′ quencher dye. During amplification, annealing of the probe to the target sequence creates a substrate that can be cleaved by the 5′-exonuclease activity of Taq polymerase.
With each cycle, additional reporter dye molecules are cleaved from their respective probes, and the fluorescence intensity is monitored at regular (six-second) intervals by laser optics built into the ABI PRISM 7700 Sequence Detection System. In each assay, a series of parallel reactions containing serial dilutions of mRNA from untreated control samples generates a standard curve that is used to quantitate the percent inhibition after antisense oligonucleotide treatment of test samples.
RT-PCR reagents were obtained from PE-Applied Biosystems, Foster City, Calif. RT-PCR reactions were carried out by adding 25 ul PCR cocktail (1× Taqman buffer A, 5.5 mM MgCl2, 300 uM each of dATP, dCTP and dGTP, 600 uM of dUTP, 100 nM each of forward primer, reverse primer, and probe, 20 U RNAse inhibitor, 1.25 units AmpliTaq Gold, and 12.5 U MuLV reverse transcriptase) to 96 well plates containing 25 ul poly(A) mRNA solution. […]
In the case of “18661 (DNA dG*dG*dA*dC*dA*dC*dA*dG*dC*dT*dC*dT*dC*dA*dC*dA*dG*dG; antisense) [compound 18661]”, the “% INHIB. (Inhibition of CD40 mRNA Levels by Phosphorothioate Oligodeoxynucleotides)” value is reported as 0.00%. For “18662 (DNA dT*dG*dC*dA*dG*dG*dA*dC*dA*dC*dA*dG*dC*dT*dC*dT*dC*dA; antisense) [compound 18662]”, the “% INHIB. (Inhibition of CD40 mRNA Levels by Phosphorothioate Oligodeoxynucleotides)” value was 0.00%. For “18663 (DNA dG*dA*dG*dC*dG*dG*dT*dG*dC*dA*dG*dG*dA*dC*dA*dC*dA*dG; antisense) [compound 18663]”, the “% INHIB. (Inhibition of CD40 mRNA Levels by Phosphorothioate Oligodeoxynucleotides)” value was 0.00%. With “18664 (DNA dA*dA*dG*dC*dC*dG*dG*dG*dC*dG*dA*dG*dC*dA*dT*dG*dA*dG; antisense) [compound 18664]” the “% INHIB. (Inhibition of CD40 mRNA Levels by Phosphorothioate Oligodeoxynucleotides)” value was 0.00%. In the case of “18665 (DNA dA*dA*dT*dC*dT*dG*dC*dT*dT*dG*dA*dC*dC*dC*dC*dA*dA*dA; antisense) [compound 18665]”, the “% INHIB. (Inhibition of CD40 mRNA Levels by Phosphorothioate Oligodeoxynucleotides)” value is reported as 5.59%. In the case of “18666 (DNA dG*dA*dA*dA*dC*dC*dC*dC*dT*dG*dT*dA*dG*dC*dA*dA*dT*dC; antisense) [compound 18666]”, the “% INHIB. (Inhibition of CD40 mRNA Levels by Phosphorothioate Oligodeoxynucleotides)” value is reported as 0.10%. “18667 (DNA dG*dT*dA*dT*dC*dA*dG*dA*dA*dA*dC*dC*dC*dC*dT*dG*dT*dA; antisense) [compound 18667]” was tested, and the “% INHIB. (Inhibition of CD40 mRNA Levels by Phosphorothioate Oligodeoxynucleotides)” value was 0.00%. With “18668 (DNA dG*dC*dT*dC*dG*dC*dA*dG*dA*dT*dG*dG*dT*dA*dT*dC*dA*dG; antisense) [compound 18668]” the “% INHIB. (Inhibition of CD40 mRNA Levels by Phosphorothioate Oligodeoxynucleotides)” value was 0.00%. With “18669 (DNA dG*dC*dA*dG*dG*dG*dC*dT*dC*dG*dC*dA*dG*dA*dT*dG*dG*dT; antisense) [compound 18669]” the “% INHIB. (Inhibition of CD40 mRNA Levels by Phosphorothioate Oligodeoxynucleotides)” value was 34.05%. For “18670 (DNA dT*dG*dG*dG*dC*dA*dG*dG*dG*dC*dT*dC*dG*dC*dA*dG*dA*dT; antisense) [compound 18670]”, the “% INHIB. (Inhibition of CD40 mRNA Levels by Phosphorothioate Oligodeoxynucleotides)” value was 0.00%. In the case of “18671 (DNA dG*dA*dC*dT*dG*dG*dG*dC*dA*dG*dG*dG*dC*dT*dC*dG*dC*dA; antisense) [compound 18671]”, the “% INHIB. (Inhibition of CD40 mRNA Levels by Phosphorothioate Oligodeoxynucleotides)” value is reported as 2.71%. For “18672 (DNA dC*dA*dT*dT*dG*dG*dA*dG*dA*dA*dG*dA*dA*dG*dC*dC*dG*dA; antisense) [compound 18672]”, the “% INHIB. (Inhibition of CD40 mRNA Levels by Phosphorothioate Oligodeoxynucleotides)” value was 0.00%. With “18673 (DNA dG*dA*dT*dG*dA*dC*dA*dC*dA*dT*dT*dG*dG*dA*dG*dA*dA*dG; antisense) [compound 18673]” the “% INHIB. (Inhibition of CD40 mRNA Levels by Phosphorothioate Oligodeoxynucleotides)” value was 0.00%. For “18674 (DNA dG*dC*dA*dG*dA*dT*dG*dA*dC*dA*dC*dA*dT*dT*dG*dG*dA*dG; antisense) [compound 18674]”, the “% INHIB. (Inhibition of CD40 mRNA Levels by Phosphorothioate Oligodeoxynucleotides)” value was 0.00%. “18675 (DNA dT*dC*dG*dA*dA*dA*dG*dC*dA*dG*dA*dT*dG*dA*dC*dA*dC*dA; antisense) [compound 18675]” was tested, and the “% INHIB. (Inhibition of CD40 mRNA Levels by Phosphorothioate Oligodeoxynucleotides)” value was 0.00%. “18676 (DNA dG*dT*dC*dC*dA*dA*dG*dG*dG*dT*dG*dA*dC*dA*dT*dT*dT*dT; antisense) [compound 18676]” was tested, and the “% INHIB. (Inhibition of CD40 mRNA Levels by Phosphorothioate Oligodeoxynucleotides)” value was 8.01%. With “18677 (DNA dC*dA*dC*dA*dG*dC*dT*dT*dG*dT*dC*dC*dA*dA*dG*dG*dG*dT; antisense) [compound 18677]” the “% INHIB. (Inhibition of CD40 mRNA Levels by Phosphorothioate Oligodeoxynucleotides)” value was 0.00%. In the case of “18678 (DNA dT*dT*dG*dG*dT*dC*dT*dC*dA*dC*dA*dG*dC*dT*dT*dG*dT*dC; antisense) [compound 18678]”, the “% INHIB. (Inhibition of CD40 mRNA Levels by Phosphorothioate Oligodeoxynucleotides)” value is reported as 0.00%. For “18679 (DNA dC*dA*dG*dG*dT*dC*dT*dT*dT*dG*dG*dT*dC*dT*dC*dA*dC*dA; antisense) [compound 18679]”, the “% INHIB. (Inhibition of CD40 mRNA Levels by Phosphorothioate Oligodeoxynucleotides)” value was 6.98%. With “18680 (DNA dC*dT*dG*dT*dT*dG*dC*dA*dC*dA*dA*dC*dC*dA*dG*dG*dT*dC; antisense) [compound 18680]” the “% INHIB. (Inhibition of CD40 mRNA Levels by Phosphorothioate Oligodeoxynucleotides)” value was 18.76%. With “18681 (DNA dG*dT*dT*dT*dG*dT*dG*dC*dC*dT*dG*dC*dC*dT*dG*dT*dT*dG; antisense) [compound 18681]” the “% INHIB. (Inhibition of CD40 mRNA Levels by Phosphorothioate Oligodeoxynucleotides)” value was 2.43%. With “18682 (DNA dG*dT*dC*dT*dT*dG*dT*dT*dT*dG*dT*dG*dC*dC*dT*dG*dC*dC; antisense) [compound 18682]” the “% INHIB. (Inhibition of CD40 mRNA Levels by Phosphorothioate Oligodeoxynucleotides)” value was 0.00%. With “18683 (DNA dC*dC*dA*dC*dA*dG*dA*dC*dA*dA*dC*dA*dT*dC*dA*dG*dT*dC; antisense) [compound 18683]” the “% INHIB. (Inhibition of CD40 mRNA Levels by Phosphorothioate Oligodeoxynucleotides)” value was 0.00%. For “18684 (DNA dC*dT*dG*dG*dG*dG*dA*dC*dC*dA*dC*dA*dG*dA*dC*dA*dA*dC; antisense) [compound 18684]”, the “% INHIB. (Inhibition of CD40 mRNA Levels by Phosphorothioate Oligodeoxynucleotides)” value was 0.00%. With “18685 (DNA dT*dC*dA*dG*dC*dC*dG*dA*dT*dC*dC*dT*dG*dG*dG*dG*dA*dC; antisense) [compound 18685]” the “% INHIB. (Inhibition of CD40 mRNA Levels by Phosphorothioate Oligodeoxynucleotides)” value was 0.00%. With “18686 (DNA dC*dA*dC*dC*dA*dC*dC*dA*dG*dG*dG*dC*dT*dC*dT*dC*dA*dG; antisense) [compound 18686]” the “% INHIB. (Inhibition of CD40 mRNA Levels by Phosphorothioate Oligodeoxynucleotides)” value was 23.31%. With “18687 (DNA dG*dG*dG*dA*dT*dC*dA*dC*dC*dA*dC*dC*dA*dG*dG*dG*dC*dT; antisense) [compound 18687]” the “% INHIB. (Inhibition of CD40 mRNA Levels by Phosphorothioate Oligodeoxynucleotides)” value was 0.00%. For “18688 (DNA dG*dA*dG*dG*dA*dT*dG*dG*dC*dA*dA*dA*dC*dA*dG*dG*dA*dT; antisense) [compound 18688]”, the “% INHIB. (Inhibition of CD40 mRNA Levels by Phosphorothioate Oligodeoxynucleotides)” value was 0.00%. In the case of “18689 (DNA dA*dC*dC*dA*dG*dC*dA*dC*dC*dA*dA*dG*dA*dG*dG*dA*dT*dG; antisense) [compound 18689]”, the “% INHIB. (Inhibition of CD40 mRNA Levels by Phosphorothioate Oligodeoxynucleotides)” value is reported as 0.00%. For “18690 (DNA dT*dT*dT*dT*dG*dA*dT*dA*dA*dA*dG*dA*dC*dC*dA*dG*dC*dA; antisense) [compound 18690]”, the “% INHIB. (Inhibition of CD40 mRNA Levels by Phosphorothioate Oligodeoxynucleotides)” value was 0.00%. With “18691 (DNA dT*dA*dT*dT*dG*dG*dT*dT*dG*dG*dC*dT*dT*dC*dT*dT*dG*dG; antisense) [compound 18691]” the “% INHIB. (Inhibition of CD40 mRNA Levels by Phosphorothioate Oligodeoxynucleotides)” value was 0.00%. For “18692 (DNA dG*dG*dG*dT*dT*dC*dC*dT*dG*dC*dT*dT*dG*dG*dG*dG*dT*dG; antisense) [compound 18692]”, the “% INHIB. (Inhibition of CD40 mRNA Levels by Phosphorothioate Oligodeoxynucleotides)” value was 0.00%. With “18693 (DNA dG*dT*dC*dG*dG*dG*dA*dA*dA*dA*dT*dT*dG*dA*dT*dC*dT*dC; antisense) [compound 18693]” the “% INHIB. (Inhibition of CD40 mRNA Levels by Phosphorothioate Oligodeoxynucleotides)” value was 0.00%. “18694 (DNA dG*dA*dT*dC*dG*dT*dC*dG*dG*dG*dA*dA*dA*dA*dT*dT*dG*dA; antisense) [compound 18694]” was tested, and the “% INHIB. (Inhibition of CD40 mRNA Levels by Phosphorothioate Oligodeoxynucleotides)” value was 0.00%. “18695 (DNA dG*dG*dA*dG*dC*dC*dA*dG*dG*dA*dA*dG*dA*dT*dC*dG*dT*dC; antisense) [compound 18695]” was tested, and the “% INHIB. (Inhibition of CD40 mRNA Levels by Phosphorothioate Oligodeoxynucleotides)” value was 0.00%. “18696 (DNA dT*dG*dG*dA*dG*dC*dC*dA*dG*dG*dA*dA*dG*dA*dT*dC*dG*dT; antisense) [compound 18696]” was tested, and the “% INHIB. (Inhibition of CD40 mRNA Levels by Phosphorothioate Oligodeoxynucleotides)” value was 0.00%. In the case of “18697 (DNA dT*dG*dG*dA*dG*dC*dA*dG*dC*dA*dG*dT*dG*dT*dT*dG*dG*dA; antisense) [compound 18697]”, the “% INHIB. (Inhibition of CD40 mRNA Levels by Phosphorothioate Oligodeoxynucleotides)” value is reported as 0.00%. For “18698 (DNA dG*dT*dA*dA*dA*dG*dT*dC*dT*dC*dC*dT*dG*dC*dA*dC*dT*dG; antisense) [compound 18698]”, the “% INHIB. (Inhibition of CD40 mRNA Levels by Phosphorothioate Oligodeoxynucleotides)” value was 0.00%.
